We go through twelve compounds from ChEMBL document CHEMBL1201862, “PubChem BioAssay data set” (2004).

Some test systems named below: MDA-MB-231; MDA-N; SF-539; A549; U-251; SN12C; EKVX; SF-295; K562; NCI-H23; DU-145; ACHN; OVCAR-5; SK-MEL-28; OVCAR-8; RXF 393; NCI-H226; Hs-578T.
Assay in all cases: inhibition of tumour cell growth, NCI panel, 48 h

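Values below derive from 48-hour exposures of cells grown in 96-well plates, with endpoints linearly interpolated between the two concentrations bracketing the appropriate inhibition level. GI50 marks 50% less growth.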 The source made the active and inactive calls. No stated cut-off is given here; in the data, active = GI50 up to about 1.1 µM and inactive = higher.

In the case of `NC(=S)C1=C(N)Oc2c(c(=O)oc3ccccc23)C1c1ccc(Br)cc1` (centres undefined), the GI50 in the assay with MDA-MB-231, with MDA-N, in the assay with SF-539, in the assay on A549, with U-251 and in the assay with SN12C was > 100 µM (inactive) in each case. The GI50 in the assay with EKVX is > 100 µM (inactive); with SF-295 it was > 100 µM (inactive); in the assay with K562, 42.1 µM (inactive); with NCI-H23, > 100 µM (inactive); in the assay with DU-145 it was > 100 µM (inactive); with ACHN, > 100 µM (inactive). Besides, the GI50 with OVCAR-5, in the assay with SK-MEL-28 and in the assay on OVCAR-8 was > 100 µM (inactive) throughout.
Take `Cc1cccc(NC(=O)CC(=O)N2N=C(N3c4ccccc4Sc4ccccc43)CC2c2ccccc2)c1` (centres undefined): the GI50 in the assay with MDA-MB-231, in the assay with SF-539, in the assay on A549, in the assay on RXF 393, in the assay with U-251 and with SN12C was > 100 µM (inactive) each time. Besides, the GI50 with EKVX, in the assay on SF-295, in the assay with K562, in the assay with NCI-H23, with NCI-H226 and in the assay on DU-145 was > 100 µM (inactive) throughout. For the same compound, the GI50 in the assay on ACHN, in the assay with OVCAR-5, with Hs-578T, in the assay on SK-MEL-28 and in the assay with OVCAR-8 was > 100 µM (inactive) in each case.
For `Nc1ccn(C2OC(COP(=O)(O)O)C(O)C2O)c(=O)n1` (centres undefined), the GI50 in the assay on MDA-MB-231 was > 100 µM (inactive); in the assay on MDA-N, 37.8 µM (inactive); in the assay on SF-539, 8.05 µM (inactive); with A549 it was 0.422 µM (active); with RXF 393 it was 11.1 µM (inactive); with U-251, 14.3 µM (inactive). The GI50 in the assay with SN12C was 7.89 µM (inactive); with EKVX, > 100 µM (inactive); with SF-295 it was 33 µM (inactive); in the assay on K562, 24 µM (inactive); with NCI-H23 it was 8.83 µM (inactive); in the assay on NCI-H226 it was 3.18 µM (inactive). The GI50 in the assay on DU-145 is 1.19 µM (inactive); in the assay with ACHN, 1.21 µM (inactive); in the assay on OVCAR-5, > 100 µM (inactive); in the assay on OVCAR-8, 2.47 µM (inactive).
Turning to `C=CCNC(=S)N1CC(C)C(=O)Nc2ccccc21` (centres undefined), the GI50 in the assay with SF-539, with A549, with RXF 393, in the assay on U-251, with SN12C and in the assay with EKVX was > 100 µM (inactive) in each case. In addition, the GI50 with SF-295, in the assay with K562, in the assay with NCI-H23, with NCI-H226, in the assay on ACHN and in the assay on OVCAR-5 was > 100 µM (inactive) in each case. For the same compound, the GI50 with SK-MEL-28 and in the assay with OVCAR-8 was > 100 µM (inactive) in each case.
In the case of `Cc1cc(OCc2nnc3n2S(=O)(=O)c2ccccc2N3C)ccc1Cl`, the GI50 in the assay with MDA-MB-231 was 16.3 µM (inactive); in the assay with SF-539, 16.7 µM (inactive); with A549 it was 44.9 µM (inactive); in the assay with RXF 393 it was 21.2 µM (inactive); with U-251, 18.6 µM (inactive); in the assay on SN12C, 32.4 µM (inactive). The GI50 is 33.1 µM (inactive) in the assay on EKVX; 18.8 µM (inactive) with SF-295; 68.7 µM (inactive) with K562; 34.4 µM (inactive) in the assay with NCI-H23; 31.2 µM (inactive) in the assay with NCI-H226; 56 µM (inactive) in the assay with DU-145. The GI50 in the assay on ACHN is 19.9 µM (inactive); in the assay with OVCAR-5, > 100 µM (inactive); with Hs-578T, 40.8 µM (inactive); in the assay with SK-MEL-28, 86.5 µM (inactive); in the assay with OVCAR-8, 26.3 µM (inactive).
With `O=C1/C(=C/c2ccc(Cl)cc2)CSC/C1=C\c1ccc(Cl)cc1`, the GI50 was 4.17 µM (inactive) in the assay with MDA-MB-231; 3.06 µM (inactive) in the assay on MDA-N; 2.76 µM (inactive) with SF-539; 4.08 µM (inactive) in the assay with A549; 1.35 µM (inactive) in the assay on RXF 393; 1.67 µM (inactive) with U-251. The GI50 in the assay with SN12C was 3.39 µM (inactive); with EKVX, 22.9 µM (inactive); with SF-295, 1.71 µM (inactive); in the assay on K562, 3.08 µM (inactive); with NCI-H23 it was 2.9 µM (inactive); in the assay with NCI-H226 it was 2.2 µM (inactive). Moreover, the GI50 was 5.87 µM (inactive) in the assay with DU-145; 3.8 µM (inactive) in the assay on ACHN; 2.19 µM (inactive) in the assay on OVCAR-5; 1.87 µM (inactive) in the assay on SK-MEL-28; 3.54 µM (inactive) in the assay on OVCAR-8.
Take `COc1cccc(CCNC(=O)Cc2ccccc2CCO)c1`: the GI50 with MDA-MB-231, with SF-539, in the assay on A549, in the assay with RXF 393, in the assay with U-251 and with SN12C was > 100 µM (inactive) in each case. The GI50 in the assay on EKVX, in the assay on SF-295, with K562, in the assay with NCI-H23, in the assay with NCI-H226 and with DU-145 was > 100 µM (inactive) in each case. The GI50 in the assay with ACHN, in the assay on OVCAR-5, in the assay with Hs-578T, in the assay on SK-MEL-28 and in the assay with OVCAR-8 was > 100 µM (inactive) each time.
Regarding `Oc1cc(O)cc(-c2nc3cc(F)ccc3s2)c1`, the GI50 in the assay on MDA-MB-231 was 25.6 µM (inactive); with MDA-N, 30.5 µM (inactive); in the assay on SF-539, 29 µM (inactive); in the assay with A549, 26.1 µM (inactive); with RXF 393, 22.7 µM (inactive); in the assay on U-251 it was 22.8 µM (inactive). The GI50 in the assay with SN12C is 29.4 µM (inactive); with SF-295 it was 17.8 µM (inactive); in the assay on NCI-H23, 26.4 µM (inactive); with NCI-H226 it was 25.8 µM (inactive); in the assay with DU-145 it was 32.8 µM (inactive); in the assay with ACHN, 24.7 µM (inactive). For the same compound, the GI50 is 20.8 µM (inactive) in the assay with OVCAR-5, 48.8 µM (inactive) in the assay with SK-MEL-28 and 22.6 µM (inactive) in the assay on OVCAR-8.
Consider `CN1N(c2ccccc2)C(=O)C2=NC=C(C#N)C(=N)C21C` (centres undefined), for which the GI50 with MDA-MB-231, in the assay with MDA-N, in the assay on SF-539, with A549, in the assay on RXF 393 and in the assay on U-251 was > 100 µM (inactive) each time. The GI50 with SN12C, in the assay on EKVX, in the assay with SF-295, with K562, in the assay with NCI-H23 and with NCI-H226 was > 100 µM (inactive) throughout. Further, the GI50 in the assay on DU-145 was > 100 µM (inactive); in the assay on ACHN it was 97.7 µM (inactive); with OVCAR-5, > 100 µM (inactive); with SK-MEL-28, > 100 µM (inactive); with OVCAR-8, > 100 µM (inactive).
Regarding `O=C1/C(=C/c2cccc(Br)c2)CSC/C1=C\c1cccc(Br)c1`, the GI50 in the assay with MDA-MB-231 is 4.2 µM (inactive); in the assay with MDA-N it was 2.65 µM (inactive); with SF-539, 2.53 µM (inactive); with A549 it was 4.32 µM (inactive); with RXF 393, 1.79 µM (inactive); in the assay on U-251, 1.87 µM (inactive). Also, the GI50 with SN12C is 2.25 µM (inactive); with EKVX, 5.68 µM (inactive); in the assay with SF-295, 2.24 µM (inactive); in the assay on K562, 2.36 µM (inactive); with NCI-H23, 3.66 µM (inactive); with NCI-H226 it was 3.72 µM (inactive). Also, the GI50 in the assay on DU-145 is 8.69 µM (inactive); in the assay on ACHN, 2.87 µM (inactive); in the assay with OVCAR-5, 4.88 µM (inactive); in the assay on SK-MEL-28, 2.65 µM (inactive); with OVCAR-8, 1.9 µM (inactive).
As to `C[N+](C)([O-])Cc1cccc(NC(=O)c2ccc(C(=O)Nc3cccc(C[N+](C)(C)[O-])c3)cc2)c1`, the GI50 with MDA-MB-231, with SF-539, with A549, in the assay with RXF 393, in the assay on U-251 and with SN12C was > 100 µM (inactive) each time. The GI50 in the assay on EKVX, in the assay with SF-295, with K562, in the assay on NCI-H23, with NCI-H226 and with DU-145 was > 100 µM (inactive) in each case. Further, the GI50 with ACHN, in the assay on OVCAR-5, with SK-MEL-28 and in the assay on OVCAR-8 was > 100 µM (inactive) each time.
Regarding `COC1C=COC2(C)Oc3c(C)c(O)c4c(O)c(c(C5SCCS5)c(O)c4c3C2=O)NC(=O)/C(C)=C\C=CC(C)C(O)C(C)C(O)C(C)C(OC(C)=O)C1C` (centres undefined), the GI50 is 5.71 µM (inactive) with MDA-MB-231; 8.15 µM (inactive) in the assay with SF-539; 6.79 µM (inactive) with A549; 6.05 µM (inactive) with RXF 393; 3.95 µM (inactive) in the assay with U-251; 2.55 µM (inactive) in the assay on SN12C. Besides, the GI50 was 4.74 µM (inactive) in the assay on SF-295; 3.66 µM (inactive) in the assay with K562; 4.69 µM (inactive) in the assay on NCI-H23; 9.04 µM (inactive) in the assay on NCI-H226; 1.29 µM (inactive) in the assay with DU-145; 3.01 µM (inactive) in the assay with ACHN. Moreover, the GI50 in the assay on OVCAR-5 is 12.7 µM (inactive); in the assay with Hs-578T, 13.4 µM (inactive); with SK-MEL-28 it was 6.56 µM (inactive); in the assay with OVCAR-8 it was 7.87 µM (inactive).
